# From patent US20250057813A1, “APOPTOSIS RELATED PROTEIN IN THE TGF-BETA SIGNALING PATHWAY (ARTS) MIMETIC COMPOUNDS, COMPOSITIONS, METHODS AND USES THEREOF IN INDUCTION OF APOPTOSIS” (Carmel-Haifa University Economic Corporation Ltd., priority 2022, published 2025)
# Key:
# MCF10AT1K (M2) cells [1] = assay: TUNEL assay in M2 cells in 3D BME system; type: cell-based, Human; conditions: 40 μM, 24 h
# Procedure: (§1) Cells were harvested from their growth plates using 0.25% trypsin EDTA. Collected cells were cultured in Cultrex® growth factor reduced Basement Membrane Extract (BME: Trevigen, Inc) as follows: An 8 chamber glass slide system (Lab-TEK® II, Naperville, IL) was coated with 60 μl BME [Barkan D. et al., Cancer Research (2008)](protein concentration between […]; thickness-1-2 mm). 5×10^3 cells per well were re-suspended in DMEM/F12 supplemented with 2.5% DHS and 2% BME and cultured on the coated slides. Slides were incubated at 37° C., 5% CO2 incubator. Cells were re-fed every 4 days. Cell morphology was monitored by light microscopy. Immunofluorescence images were captured by Nikon Al—R confocal laser scanning microscope (Haifa University, Haifa, Israel).
# The cells were cultured as described above in 8 well chamber glass slides, fixed according to Barkan's immunofluorescence staining protocol and incubated for 1 hour with a mixture of TUNEL reaction mix according to the manufacturer's protocol (In Situ Cell death Detection Kit, TMR Red; Roche, Cat #12-156-792-910) covered with aluminum foil and placed in the 37° C., 5% CO2 incubator. Following incubation, slides were washed three times with PBS for 5 minutes each, and mounted with […] mounting medium with DAPI. DAPI stain was used to assess total cell number. […]
# HeLa cells = assay: Western blot of HeLa cells exposed to B3; type: cell-based; conditions: 30 μM, 2-24 hrs
# Procedure: (§2) The cells were lysed in WCE (whole-cell extract) buffer [25 mM Hepes, pH 7.7, 0.3M NaCl, 1.5 mM MgCl2, 0.2 mM EDTA, 0.1% Triton X-100, 100[μg/ml PMSF and protease inhibitor cocktail (Roche, 1:100 dilution)]. 100 μg of total cell protein, measured with the Bio-Rad Protein Assay kit, were separated by SDS-PAGE (12%) followed by transfer for 2 h on to a nitrocellulose membrane. The membrane was blocked with 5% (w/v) non-fat dried skimmed milk powder in PBS supplemented with 0.05% Tween20 (PBS-T) for 1 hour at room temperature (R.T). Membrane was then probed with primary antibody at 4° C. overnight. Next, the membrane was incubated with the appropriate HRP-conjugated secondary antibody, for 1 hour at R.T. and washed 15 min ×3 with PBS-T. WesternBright ECL (Advansta) was added to the membrane for 2 min and analyzed using ImageQuant LAS-4000 analyzer (GE Healthcare Life Sciences) & “ImageQuant LAS-4000” software (GE Healthcare Life Sciences). Densitometry analysis was performed using ImageQuant total lab 7 (GE Healthcare Life Sciences), image analysis software.
# MEF cells = assay: Western blot analysis of MEF cells (WT and XIAP KO); type: cell-based, mouse; conditions: 20 μM B3 for 2, 4, 6, 16 hours
# Procedure: (§3) Cells were lysed in whole-cell extract buffer [25 mM HEPES, pH 7.7, […], 1.5 mM MgCl2, 0.2 mM EDTA, 0.1% Triton X-100, 100 μg/ml phenylmethylsulfonyl fluoride (PMSF) and protease inhibitor cocktail (Roche, 1:100 dilution)] and placed on ice for 30 min (vortexing once after 15 min). After 30 minutes, the samples were centrifuged at 13,000×g for 10 minutes at 4° C. The supernatants containing total protein were measured for protein concentration using Bio-Rad Protein Assay Dye Reagent Concentrate Kit. 40 to […] was separated by sodium dodecyl sulfate-polyacrylamide gel electrophoresis (SDS-PAGE) (12% or 7.5%), followed by transfer to a nitrocellulose membrane. The membranes were blocked with 5% (w/v) non-fat dried skimmed milk powder in PBS supplemented with 0.05% Tween-20 (PBS-T) for 1 h at RT. Next, primary antibodies were added at 4° C. overnight or for 2 h at room temperature. Membranes were then incubated with secondary antibody for 1 h at RT and washed three times for 15 min each with PBS-T. Western Bright ECL (Advansta) was added to the membrane for 30-60 s and analyzed using Image Quant LAS-4000 (GE Healthcare Life Sciences) and Image Quant LAS-4000 software (GE Healthcare Life Sciences).
# [2] = system: CCRF-CEM (acute lymphoblastic leukemia) cell line; assay: Western blot analysis of CCRF-CEM; type: cell-based; conditions: B3 alone, 24 hrs
# Procedure: as §2
# MCF10AT1K (M2) cells [3] = assay: 3D BME culture of M2 organoids, light microscopy; type: cell-based, Human
# Procedure: as §1
# [4] = system: SKMEL-5, A-375, UACC257, Hela wt, Mefs; assay: Western blot, B3 apoptotic effect on different cell lines; type: cell-based; conditions: 20 μM, 24 h
# Procedure: as §2
# BCL-2 = BCL-2 (Homo sapiens, UniProt P10415); assay: MST binding assay; conditions: binding curve, dose response
# Sequence of BCL-2 (P10415 whole entry): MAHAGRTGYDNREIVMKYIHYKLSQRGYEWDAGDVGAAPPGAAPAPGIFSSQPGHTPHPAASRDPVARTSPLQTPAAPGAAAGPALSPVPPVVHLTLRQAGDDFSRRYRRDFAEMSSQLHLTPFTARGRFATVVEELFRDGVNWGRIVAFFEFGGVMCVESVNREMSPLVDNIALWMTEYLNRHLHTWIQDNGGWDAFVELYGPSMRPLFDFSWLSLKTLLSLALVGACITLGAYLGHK
# Procedure: Microscale thermophoresis (MST) binding assays were performed by CreLux, a WuXi AppTech company in Germany, using recombinant ARTS, XIAP, Bcl-2 and cIAP1 proteins. Specifically, for performing experiments with untagged XIAP, a fluorescent label (NT650) was covalently attached to the protein (Maleimide coupling). The labelling was performed in a buffer containing 50 mM HEPES pH 7.0, 150 mM NaCl and 0.005% Tween-20.
# Jurkat cell lines = assay: PrestoBlue viability assay; type: cell-based; conditions: 20 μM B3 vs 12.5 μM Etoposide, 24 h
# [5] = system: WT MEFs and Sept4/ARTS KO MEFs cells; assay: Western blot of WT MEFs and Sept4/ARTS KO MEFs; type: cell-based, mouse; conditions: 20 or 40 μM, 24 hours
# Procedure: as §3
# [6] = system: MG-63 osteosarcoma cell line; assay: Dose response of cell death with B3 relative to DMSO; type: cell-based; conditions: increasing doses of B3
smiles,measurement,setting,value
"Cn1ccnc1C(=O)c1ccc(NC(=O)C(=O)N[C@H](CO)Cc2ccccc2)cc1 [B3, (S)-N1-(1-hydroxy-3-phenylpropan-2-yl)-N2-(4-(1-methyl-1H-imidazole-2-carbonyl)phenyl)oxalamide]",number of cells positive for TUNEL staining,MCF10AT1K (M2) cells [1],significant increase
same,anti-apoptotic markers,HeLa cells,reduction
same,MDM2 levels,MEF cells,reduction
same,XIAP levels,MEF cells,reduction
same,cPARP or caspase3,MEF cells,elevation
same,p53 levels,MEF cells,elevation
same,induction of apoptosis,[2],sufficient to induce apoptosis
same,"cellular death (blebbing, cell shrinkage)","MCF10AT1K (M2) cells [3]; 40 μM, 24 h",induced cellular death
same,"cellular death (blebbing, cell shrinkage)","MCF10AT1K (M2) cells [3]; increasing concentrations, 7 days, dose dependent",induced cellular death
same,cleavage of apoptotic markers Caspase3 and PARP,[4],induced cleavage
same,direct binding to Bcl-2,BCL-2,binds with high affinity
same,cell death compared with Etoposide,Jurkat cell lines,as efficient as the strong pro-apoptotic chemotherapeutic agent Etoposide
same,XIAP levels,[5],downregulates
same,p53 levels,[5],upregulate
same,cell death,[6],dose-dependent death
